From ChEMBL document CHEMBL1201862, “PubChem BioAssay data set” (2004)
Activity calls are given as the source filed them.

Columns and labels:
[1] = target: T1, Polyadenylate-binding protein 1 (Homo sapiens, UniProt P11940); experiment: MLLE binding blockers, Cy5 peptide tracer – biochemical, fluorescence polarization, Cy5-PAM2 peptide, secondary, miRNA deadenylation inhibitor project, dose response (AID 602260); type: functional; conditions: read-out: IC50_Mean
[2] = target: T2, Dual specificity protein phosphatase 3 (Homo sapiens, UniProt P51452); experiment: SAR VHR1 Fluorescent Assay for In Vitro dose response studies. [Related pubchem assays (depositor defined):AID1654, AID1661, AID1878, AID1992, AID2004, AID2070, AID2085]; type: functional
[3] = target: T3, Tyrosine-protein phosphatase non-receptor type 7 (Homo sapiens, UniProt P35236); experiment: redox-active compounds inhibiting HePTP phosphatase – biochemical, fluorescence, mechanism study (AID 2068); type: functional
T3 sequence (P35236 whole entry): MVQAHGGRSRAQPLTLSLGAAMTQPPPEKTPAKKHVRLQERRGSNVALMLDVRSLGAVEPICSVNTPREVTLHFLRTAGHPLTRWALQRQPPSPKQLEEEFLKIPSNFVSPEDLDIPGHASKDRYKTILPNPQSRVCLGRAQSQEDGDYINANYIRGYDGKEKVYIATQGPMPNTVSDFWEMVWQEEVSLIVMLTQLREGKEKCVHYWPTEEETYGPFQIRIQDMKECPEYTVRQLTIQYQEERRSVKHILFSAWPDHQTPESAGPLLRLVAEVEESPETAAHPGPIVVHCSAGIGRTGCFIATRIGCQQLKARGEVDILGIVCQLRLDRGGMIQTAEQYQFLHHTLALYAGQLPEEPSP

[4] = target: T2, Dual specificity protein phosphatase 3; experiment: MOA VHR1 Fluorescent secondary assay for identification of redox-state modulating compounds. [Related pubchem assays (depositor defined):AID1654, AID1661, AID1878, AID1957]
[5] = target: T1, Polyadenylate-binding protein 1; experiment: MLLE domain peptide-binding blockers, IC50 – biochemical, fluorescence polarization, FITC-PAM2 peptide, dose response (AID 602259); type: functional; conditions: read-out: IC50_Mean
[6] = target: Dual specificity protein phosphatase 6 (Rattus norvegicus, UniProt Q64346); type: functional;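 further: confirmatory in vitro dose-response testing of MKP-3 inhibition; recombinant His-tagged MKP-3 made in E. coli BL21 with OMFP substrate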
[7] = target: T2, Dual specificity protein phosphatase 3; experiment: SAR VHR1 absorbance Assay for In Vitro dose response studies. [Related pubchem assays (depositor defined):AID1654, AID1661, AID1878, AID1992, AID2004]
ORF 73 = ORF 73 (Human herpesvirus 8, UniProt O40947); experiment: KSHV LANA DNA-binding disruption – biochemical, fluorescence polarization, cherry-picked samples, dose response (AID 504725); parameters: species or system Human gammaherpesvirus 8;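 further: fluorescence polarization of a labeled DNA duplex reporting LANA DNA binding; potency is for inhibitors that block LANA binding to the DNA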
Beta Lactamase = Beta Lactamase (Pseudomonas aeruginosa, UniProt Q932Y6); experiment: BLA reporter interference, concentration series – BLA reporter cells, FRET fluorescence, artefact control for TLR9-MyD88 binding inhibitor project, dose response (AID 588341); type: cell-based;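 further: cell based assay in CHO-K1 cells stably expressing beta-lactamase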
CHO = CHO cell viability loss, potency – luminescence, cytotoxicity control for TLR9-MyD88 binding inhibitor project, dose response (AID 588339); type: functional, cell-based, hamster; conditions: Cricetulus griseus;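 further: CHO cells stably coexpressing TLR9 and MyD88 fusions from primary screen; compound exposure lasted 48 hours before viability readout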
HEK293 [8] = experiment: membrane integrity loss in HEK cells – cell-based, fluorescence, cytotoxicity control for IDE activator project, dose response (AID 588440); type: functional; conditions: Homo sapiens;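 further: cytotoxicity by LDH release measuring loss of membrane integrity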
Keap1/Nrf2 = Keap1/Nrf2 (Homo sapiens, UniProt Q14145); experiment: disruptors of Keap1 binding to Nrf2 peptide – biochemical, fluorescence polarization, cherry-picked samples, dose response (AID 588683)
Insulin-degrading enzyme [9] = target: T4, Insulin-degrading enzyme (Homo sapiens, UniProt P14735); experiment: recombinant IDE activation, cell-free – biochemical, fluorescence polarization, counter-screen for IDE activator project, dose response (AID 588681)
T4 sequence (P14735 whole entry): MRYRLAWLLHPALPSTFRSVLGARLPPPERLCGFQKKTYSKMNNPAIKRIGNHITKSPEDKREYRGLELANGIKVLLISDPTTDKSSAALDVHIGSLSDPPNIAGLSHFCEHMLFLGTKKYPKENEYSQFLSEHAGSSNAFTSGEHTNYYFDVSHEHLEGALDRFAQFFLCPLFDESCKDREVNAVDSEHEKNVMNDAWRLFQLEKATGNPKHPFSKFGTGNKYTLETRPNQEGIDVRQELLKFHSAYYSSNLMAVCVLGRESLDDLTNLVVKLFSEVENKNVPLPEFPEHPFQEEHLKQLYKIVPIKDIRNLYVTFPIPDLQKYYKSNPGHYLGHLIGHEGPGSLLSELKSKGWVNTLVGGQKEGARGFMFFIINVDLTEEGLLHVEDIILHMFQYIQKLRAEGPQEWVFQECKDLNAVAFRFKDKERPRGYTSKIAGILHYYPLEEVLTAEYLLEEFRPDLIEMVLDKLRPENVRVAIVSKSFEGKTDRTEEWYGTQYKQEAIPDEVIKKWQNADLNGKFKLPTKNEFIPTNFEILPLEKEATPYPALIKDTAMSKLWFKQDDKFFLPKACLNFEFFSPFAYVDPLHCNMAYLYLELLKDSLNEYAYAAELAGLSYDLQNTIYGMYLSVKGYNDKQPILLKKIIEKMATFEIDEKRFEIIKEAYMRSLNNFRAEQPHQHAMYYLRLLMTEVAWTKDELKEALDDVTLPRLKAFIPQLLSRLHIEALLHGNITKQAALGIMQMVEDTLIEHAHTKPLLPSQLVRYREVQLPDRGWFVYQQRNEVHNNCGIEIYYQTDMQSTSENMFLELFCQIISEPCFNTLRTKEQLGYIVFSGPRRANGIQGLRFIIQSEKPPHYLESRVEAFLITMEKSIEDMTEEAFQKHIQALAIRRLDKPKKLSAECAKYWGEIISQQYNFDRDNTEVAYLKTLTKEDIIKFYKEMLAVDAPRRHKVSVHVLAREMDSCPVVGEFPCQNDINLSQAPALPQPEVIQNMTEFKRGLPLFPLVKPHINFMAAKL

HEK293 [10] = experiment: optical interference in Abeta FP readout, dose response, artefact control for IDE activator project, biochemical, fluorescence polarization (AID 588442); type: functional, cell-based; conditions: Homo sapiens
[11] = target: UDP-galactopyranose mutase (Mycobacterium tuberculosis, UniProt P9WIQ1); experiment: Inhibitors of Mycobacterium tuberculosis UDP-galactopyranose mutase (UGM) enzyme Measured in Biochemical System Using Plate Reader - 2105-02_Inhibitor_Dose_CherryPick_Activity. [Related pubchem assays (depositor defined):AID504439]
Insulin-degrading enzyme [12] = target: T4, Insulin-degrading enzyme; experiment: cellular IDE activation of Abeta substrate cleavage – fluorescence polarization, HEK cells, dose response (AID 588439); type: functional, cell-based

T2 sequence (P51452 whole entry): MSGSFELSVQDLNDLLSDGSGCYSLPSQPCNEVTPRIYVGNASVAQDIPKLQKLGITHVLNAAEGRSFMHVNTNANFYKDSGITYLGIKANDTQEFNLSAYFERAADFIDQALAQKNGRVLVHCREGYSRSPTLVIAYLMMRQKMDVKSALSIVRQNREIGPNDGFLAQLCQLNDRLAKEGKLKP
T1 sequence (P11940 whole entry): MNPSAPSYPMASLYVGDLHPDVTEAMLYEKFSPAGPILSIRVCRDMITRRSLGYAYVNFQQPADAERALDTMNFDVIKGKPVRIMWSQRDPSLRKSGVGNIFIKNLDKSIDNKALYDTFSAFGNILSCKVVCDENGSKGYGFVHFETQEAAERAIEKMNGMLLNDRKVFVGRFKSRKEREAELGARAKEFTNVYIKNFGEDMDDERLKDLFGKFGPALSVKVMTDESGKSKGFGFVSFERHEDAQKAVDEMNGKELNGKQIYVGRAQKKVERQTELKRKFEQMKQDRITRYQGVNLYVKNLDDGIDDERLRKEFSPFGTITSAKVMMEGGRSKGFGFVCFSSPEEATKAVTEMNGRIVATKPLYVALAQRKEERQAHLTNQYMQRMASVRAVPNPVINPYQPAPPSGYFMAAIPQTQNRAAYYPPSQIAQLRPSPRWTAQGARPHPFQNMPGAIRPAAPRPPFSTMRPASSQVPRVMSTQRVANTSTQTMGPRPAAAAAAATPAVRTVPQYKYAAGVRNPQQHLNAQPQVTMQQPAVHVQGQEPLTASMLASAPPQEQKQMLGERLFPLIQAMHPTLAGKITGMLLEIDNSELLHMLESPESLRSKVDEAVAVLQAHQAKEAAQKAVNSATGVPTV
Chain of Keap1/Nrf2 (Q16236 whole entry): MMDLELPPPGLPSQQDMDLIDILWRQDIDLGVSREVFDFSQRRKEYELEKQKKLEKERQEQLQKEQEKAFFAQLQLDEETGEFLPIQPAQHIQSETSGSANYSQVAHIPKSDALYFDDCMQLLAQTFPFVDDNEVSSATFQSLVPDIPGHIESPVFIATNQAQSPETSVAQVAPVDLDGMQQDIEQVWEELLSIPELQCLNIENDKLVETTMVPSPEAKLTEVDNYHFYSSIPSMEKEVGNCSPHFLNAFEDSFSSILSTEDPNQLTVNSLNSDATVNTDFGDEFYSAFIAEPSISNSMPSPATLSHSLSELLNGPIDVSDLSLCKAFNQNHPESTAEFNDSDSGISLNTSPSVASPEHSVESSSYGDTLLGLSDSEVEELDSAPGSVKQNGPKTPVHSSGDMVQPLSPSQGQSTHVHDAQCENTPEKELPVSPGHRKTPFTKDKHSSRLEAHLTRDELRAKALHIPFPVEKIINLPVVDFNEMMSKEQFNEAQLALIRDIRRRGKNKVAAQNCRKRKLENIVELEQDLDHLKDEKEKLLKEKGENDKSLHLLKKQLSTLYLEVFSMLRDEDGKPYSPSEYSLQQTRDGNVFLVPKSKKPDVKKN
Chain of Keap1/Nrf2 (Q14145 whole entry): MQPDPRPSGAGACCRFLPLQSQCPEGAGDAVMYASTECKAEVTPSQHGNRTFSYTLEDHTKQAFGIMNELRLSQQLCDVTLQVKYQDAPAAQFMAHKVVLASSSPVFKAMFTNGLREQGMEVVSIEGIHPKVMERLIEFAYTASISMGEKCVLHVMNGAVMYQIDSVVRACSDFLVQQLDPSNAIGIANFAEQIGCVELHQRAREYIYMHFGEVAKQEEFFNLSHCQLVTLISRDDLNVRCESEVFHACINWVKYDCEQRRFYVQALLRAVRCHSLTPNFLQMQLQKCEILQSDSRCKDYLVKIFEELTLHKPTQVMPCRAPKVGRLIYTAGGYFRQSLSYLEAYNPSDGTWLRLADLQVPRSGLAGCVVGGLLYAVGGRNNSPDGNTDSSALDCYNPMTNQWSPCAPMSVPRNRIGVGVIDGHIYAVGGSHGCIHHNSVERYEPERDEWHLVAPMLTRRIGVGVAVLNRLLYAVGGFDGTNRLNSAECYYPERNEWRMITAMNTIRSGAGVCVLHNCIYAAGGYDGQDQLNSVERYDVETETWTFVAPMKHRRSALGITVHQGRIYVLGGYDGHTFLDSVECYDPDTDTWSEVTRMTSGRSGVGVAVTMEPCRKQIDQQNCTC
Chain of ORF 73 (O40947 whole entry): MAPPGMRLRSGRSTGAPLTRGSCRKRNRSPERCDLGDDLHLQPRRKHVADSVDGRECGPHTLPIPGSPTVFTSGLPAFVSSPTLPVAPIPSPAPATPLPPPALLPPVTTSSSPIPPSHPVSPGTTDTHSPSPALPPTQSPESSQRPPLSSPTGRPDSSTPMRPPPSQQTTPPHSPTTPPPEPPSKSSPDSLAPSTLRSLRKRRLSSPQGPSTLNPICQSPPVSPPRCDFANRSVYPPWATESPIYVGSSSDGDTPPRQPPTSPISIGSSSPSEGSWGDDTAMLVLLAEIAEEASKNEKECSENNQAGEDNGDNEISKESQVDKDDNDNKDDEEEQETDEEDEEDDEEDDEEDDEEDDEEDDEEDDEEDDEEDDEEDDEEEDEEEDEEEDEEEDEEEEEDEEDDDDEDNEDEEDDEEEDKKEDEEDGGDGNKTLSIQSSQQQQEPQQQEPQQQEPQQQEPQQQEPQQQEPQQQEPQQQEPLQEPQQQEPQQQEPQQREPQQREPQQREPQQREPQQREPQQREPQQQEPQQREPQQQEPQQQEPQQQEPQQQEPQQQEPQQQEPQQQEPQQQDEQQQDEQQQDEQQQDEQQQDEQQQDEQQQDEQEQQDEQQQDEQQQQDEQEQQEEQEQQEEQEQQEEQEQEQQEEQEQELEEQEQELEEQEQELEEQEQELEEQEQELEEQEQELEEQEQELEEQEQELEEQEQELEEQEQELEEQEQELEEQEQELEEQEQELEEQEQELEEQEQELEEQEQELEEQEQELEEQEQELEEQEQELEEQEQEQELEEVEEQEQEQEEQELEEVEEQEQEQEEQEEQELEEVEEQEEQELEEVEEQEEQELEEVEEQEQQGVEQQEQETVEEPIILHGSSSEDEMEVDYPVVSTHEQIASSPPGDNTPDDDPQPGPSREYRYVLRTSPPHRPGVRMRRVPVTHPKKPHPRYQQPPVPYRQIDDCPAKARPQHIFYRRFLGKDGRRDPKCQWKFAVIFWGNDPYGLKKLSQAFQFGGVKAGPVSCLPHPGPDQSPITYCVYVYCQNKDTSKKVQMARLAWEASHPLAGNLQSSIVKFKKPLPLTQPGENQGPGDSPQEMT
Chain of Beta Lactamase (Q932Y6 whole entry, the tested form may be a part): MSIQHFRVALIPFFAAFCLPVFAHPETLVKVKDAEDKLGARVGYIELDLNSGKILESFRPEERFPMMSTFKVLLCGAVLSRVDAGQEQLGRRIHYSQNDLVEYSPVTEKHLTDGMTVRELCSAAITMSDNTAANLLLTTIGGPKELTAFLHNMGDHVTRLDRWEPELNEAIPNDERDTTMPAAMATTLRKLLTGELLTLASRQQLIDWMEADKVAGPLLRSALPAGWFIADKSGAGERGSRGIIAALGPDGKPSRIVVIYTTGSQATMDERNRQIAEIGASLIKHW
Chain of UDP-galactopyranose mutase (P9WIQ1 whole entry): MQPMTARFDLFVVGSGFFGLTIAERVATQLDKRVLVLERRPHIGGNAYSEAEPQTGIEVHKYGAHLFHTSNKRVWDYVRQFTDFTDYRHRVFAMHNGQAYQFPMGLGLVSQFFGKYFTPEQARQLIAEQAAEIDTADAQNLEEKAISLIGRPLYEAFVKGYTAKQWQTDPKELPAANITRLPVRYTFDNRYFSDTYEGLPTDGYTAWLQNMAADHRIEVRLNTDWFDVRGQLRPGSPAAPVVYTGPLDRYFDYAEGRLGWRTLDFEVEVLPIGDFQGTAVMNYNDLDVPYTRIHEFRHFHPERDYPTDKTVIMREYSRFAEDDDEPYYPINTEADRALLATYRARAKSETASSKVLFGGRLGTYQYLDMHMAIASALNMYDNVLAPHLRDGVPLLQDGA
Chain of Dual specificity protein phosphatase 6 (Q64346 whole entry): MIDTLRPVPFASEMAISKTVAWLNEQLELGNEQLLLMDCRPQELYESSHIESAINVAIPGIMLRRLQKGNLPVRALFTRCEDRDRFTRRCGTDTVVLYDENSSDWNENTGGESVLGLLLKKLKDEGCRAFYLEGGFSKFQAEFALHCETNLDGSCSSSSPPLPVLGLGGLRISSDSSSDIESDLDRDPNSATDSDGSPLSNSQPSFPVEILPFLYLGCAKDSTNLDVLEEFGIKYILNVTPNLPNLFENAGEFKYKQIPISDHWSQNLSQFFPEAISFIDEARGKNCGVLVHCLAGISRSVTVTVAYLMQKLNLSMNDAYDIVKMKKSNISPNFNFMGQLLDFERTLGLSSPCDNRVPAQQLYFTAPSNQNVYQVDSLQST

| SMILES | IC50 [1] | IC50 [2] | IC50 [3] | IC50 [4] | IC50 [5] | IC50 [6] | IC50 [7] | AC50 (ORF 73) | IC50 (Beta Lactamase) | IC50 (CHO) | IC50 (HEK293 [8]) | AC50 (Keap1/Nrf2) | EC50 (Insulin-degrading enzyme [9]) | EC50 (HEK293 [10]) | AC50 [11] | EC50 (Insulin-degrading enzyme [12]) |
| --- | --- | --- | --- | --- | --- | --- | --- | --- | --- | --- | --- | --- | --- | --- | --- | --- |
| COc1cc(C(=S)N2CCC(C)CC2)ccc1O | > 66 µM (inactive) | 30.4 µM (active) | 1.61 µM (active) | 1.21 µM (active) | > 66 µM (inactive) | > 100 µM (inactive) | > 100 µM (inactive) |  |  |  |  |  |  |  |  |  |
| CC(C)CCN1C(=O)c2cccc3c(N)ccc(c23)C1=O |  |  |  |  |  |  |  | 5.98 µM (active) | 4.77 µM (active) | > 49.8 µM (inactive) | > 89.3 µM (inactive) | 1.71 µM (active) | > 54.7 µM (inactive) | 13.2 µM (inactive) | 2.84 µM (active) | > 54.7 µM (inactive) |
